Data: patent US10822376B2, “Biologically active peptides” (Baxalta Incorporated, priority 2008, dated 2020)
Where a SMILES comes first, the peptide text is derived from it. Where no end group is shown, it is not given here. [ ]: non-standard residue; d: D form.

Key:
[1] = test system: FVIII-inhibited human normal plasma; experiment: Defined Fibrin Deposition Assay (clotting time); assay type: biochemical; details: for Activity in the Defined Fibrin Deposition Assay: summary
Method: Another suitable assay to determine procoagulant activity, and particularly FVIII equivalent activity or FVIII inhibitor bypassing activity, is the Defined Fibrin Deposition Assay as described below. […] This assay is particularly useful for determining coagulation FVIII activity because it is conducted in the presence of FVIII-depleted or inhibited plasma.
The Defined Fibrin Deposition Assay is performed as follows. FVIII activity of human citrated plasma (Baxter AG) is first inhibited by incubating (2 hours, 37° C.) 100 μl of human normal plasma with 25 μl heat inactivated anti-human FVIII plasma (300 BU/ml, 6 hours incubated at 56° C.) raised in goat. For each sample to be tested, 125 μl of this FVIII-inhibited human normal plasma is transferred to a pre-warmed cuvette and a 75 μl dilution of a test compound or FEIBA reference standard (Baxter AG) is added. The dilutions of test compound or FEIBA reference standard contain 50 mM imidazole, 100 mM NaCl and 10 mg/ml human serum albumin (Sigma) pH 7.4. As a trigger and for providing procoagulant surfaces 100 μl of a mix of human factor XIa (3.13 nM, Enzyme Research Laboratories) and phospholipid (PL) vesicles (Phosphatidylcholine/Phosphatidylserine 60%/40%, 30 μM; Avanti Polar Lipids) in 50 mM Imidazole, 100 mM NaCl, 10 mg/ml human serum albumin (Sigma) pH 7.4 is included. After incubating for three minutes at 37° C. the coagulation reaction is started by adding 100 μl of 25 mM CaCl2. Clot formation is monitored by a coagulometer (KC10A, Amelung, Germany). In brief, each cuvette rotates slowly above the magnetic detection device and contains a small magnetic metallic ball. Whilst the plasma components remain in solution, the ball sits at the bottom of the cuvette. Over time, a clot begins to form, such that the ball starts to rotate with the developing clot in the rotating cuvette. The “clotting time” is recorded and is defined as the time from addition of the CaCl2) to the time that the developing clot begins to rotate the metallic ball. A standard curve for FEIBA reference standard dilutions is calculated by linear regression of logarithmic FEIBA concentrations (x-axis) against the clotting time (y-axis). Based on the clotting time of each compound concentration FEIBA equivalent activities are calculated according to this standard curve.
Thus, where a concentration of 100 μM is given, the actual concentration in the final assay volume in 25 μM.
Various peptides were tested for the ability to stimulate fibrin deposition in the Defined Fibrin Deposition Assay as described in the specific description.

[2] = target: T1, HERG channel (Homo sapiens, UniProt Q12809); experiment: HERG inhibition, patch clamp assay; details: patch clamp assay
Method: QT prolongation is assessed by HERG inhibition measured by patch-clamp techniques or Rb^+ efflux.
For rigorous characterization of HERG inhibition the patch clamp assay is applied (Cerep, France, Catalog ref. 900-36). […] The test compounds (10 mM stock solutions) were dissolved in dimethylsulfoxide (DMSO). The solutions at 1 μM contained 0.01% DMSO.

[3] = target: T1, HERG channel; assay type: cell-based
Method: It was tested at 10 μM and the data were compared with historical values determined at Cerep.

[4] = test system: C57BI/6 mice; experiment: Acute toxicology in mice; assay type: in vivo, mouse; details: 60 minutes following administration; for Max dose within toxicity category: Severe toxicity (one of the animals died within one hour) / Max dose within toxicity category: Some toxicity (ataxy or catalepsy, no deaths): i.v.
Method: Toxicology studies involved monitoring of attitude changes due to toxic effects immediately after application and twice daily; monitoring of body weight; histopathology of brain, heart, kidney, liver, lung. Experiments were performed in C57131/6 mice.
C57BI/6 mice weighing 18-20 g were administered with compounds in a suitable vehicle i.v. in the tail vein or i.p. or s.c at 10 ml/kg. Quantities of the compounds administered were in the range of 0.075 to 125 mg/kg (i.v.), 15-125 mg/kg (i.p.) and 125 mg/kg (s.c.). There were four mice per group. Attitude changes due to toxic effects were monitored immediately after administration of the compound and for 60 minutes thereafter. Body weight was monitored for five days after administration. At day 5 after administration, mice were culled and autopsy performed. Brain, heart, kidney, liver, lung and spleen were biopsied.
In the above table, the maximum dose tested giving rise to no detected toxicity, some toxicity or severe toxicity over the period of 60 minutes following administration is reported. “No detected toxicity” indicates no acute toxic observations.

[5] = in vitro; assay type: in vitro ADME; details: mouse, microsomes, pH 7.4
Method: Tests were used to determine the stability of compounds in microsomal preparations of human or animal origin. The microsomal stability is measured either in assays provided by Cerep (France, Catalog ref. 900-8h) or by the protocol described below. […] All wells must be carefully mixed to ensure a homogenous suspension before the next steps. 75 μl samples (duplicates) at t=0 minutes are taken for each compound. The plate is sealed and returned to the water bath/thermomixer for 30 minutes. The test compounds/standards are extracted by addition of 200 μl methanol, also including an internal standard. […] The samples are centrifuged at 1300 g for 10 min at 4° C. 200 μl of the supernatant is transferred into a 96-well plate with 10 μl DMSO per well. Compound stability is measured by HPLC-MS analysis (triplicates). The same procedure is repeated after 30 min. […] The signal to noise ratio for all peaks must be 5:1 or better. The ratio AUCanalyte: AUCstandard at the different timepoints must be used. The calculated stability for the control compound must fall in a certain range to validate the assay.

[6] = in vivo; details: C57BL/6, mouse
Method: Pharmacokinetics of compounds were tested in C57BI/6 mice or Wistar rats at 1-30 mg/kg. Compound concentrations in the blood stream were monitored at appropriate intervals using LC-MS.
Pharmacokinetic studies were performed to monitor compound concentrations in plasma following i.v., i.p. or s.c. administration. Studies were conducted in C57BI/6 mice weighing approximately 20 g.
Peptide concentrations in the plasma were analysed by HPLC-MS on a Surveyor HPLC combined with mass spectrometer LCQ classic or Advantage (all Thermo Electron, US) equipped with an ESI-source. All HPLC experiments were carried out on a Phenomenex C-18 Luna column (50 mm×2.0 mm, 5 μl injection volume) using a linear gradient: eluent A 0.05% trifluoracetic acid (TFA) in water; eluent B 0.05% TFA in acetonitrile; flow rate 0.3 mL/min in 10 min. […] The internal standard is prepared as a 0.1 μg/ml solution in 100% methanol. 50 μl plasma and 50 μl internal standard are mixed. 100 μl methanol is added and mixed thoroughly. After 30 min incubation on ice the vial is centrifuged for 15 min at 4° C. […] 150 μl of the supernatant are transferred into the HPLC vial

[7] = in vitro; details: human, plasma
Method: Half-life of compounds in human or mouse plasma, or percentage of compound remaining after an incubation in human or mouse plasma, is determined as follows. In the experimental procedure, test compound concentrations are 5 μM, prepared from test compound stock solutions of 10 mM in DMSO. Propantheline is used as a standard. […] All of the samples are incubated in a water bath at 37° C. […] After a chosen duration of incubation (generally at t=60 min) each sample is mixed with a further 500 μl acetonitrile. The samples are mixed on a vortex mixer for 30 s and placed on ice for 10 min and collected for centrifugation. Samples are centrifuged at 20 000 g for 10 min at 4° C. 500 μl supernatant is transferred into a new 1.5 ml Eppendorf tube and an equal volume of acetonitrile is added. The sample is mixed again for 30 s using a vortex mixer. After a second centrifugation step (20 000 g, 10 min, 4° C.) 250 μl of the supernatant is transferred into HPLC glass vials for HPLC-MS analysis. Conditions for performing HPLC are as follows: Injection-volume is set to 20 μl. Temperature is set to 25° C. A linear gradient from 95:5 to 5:95 water:acetonitrile both containing 0:05% trifluoroacetic acid (TFA) (v/v) is applied at a flow rate of 0.3 ml/min for 10 min. The PDA-detector is scanning from 210-400 nm.

[8] = test system: FIX−/− mice; experiment: Tail clip assay in FIX−/− mice (blood loss, survival); assay type: in vivo, mouse
[9] = in vitro; details: human, pH 7.4
[10] = in vitro; details: mouse, pH 7.4

T1 sequence (Q12809 whole entry): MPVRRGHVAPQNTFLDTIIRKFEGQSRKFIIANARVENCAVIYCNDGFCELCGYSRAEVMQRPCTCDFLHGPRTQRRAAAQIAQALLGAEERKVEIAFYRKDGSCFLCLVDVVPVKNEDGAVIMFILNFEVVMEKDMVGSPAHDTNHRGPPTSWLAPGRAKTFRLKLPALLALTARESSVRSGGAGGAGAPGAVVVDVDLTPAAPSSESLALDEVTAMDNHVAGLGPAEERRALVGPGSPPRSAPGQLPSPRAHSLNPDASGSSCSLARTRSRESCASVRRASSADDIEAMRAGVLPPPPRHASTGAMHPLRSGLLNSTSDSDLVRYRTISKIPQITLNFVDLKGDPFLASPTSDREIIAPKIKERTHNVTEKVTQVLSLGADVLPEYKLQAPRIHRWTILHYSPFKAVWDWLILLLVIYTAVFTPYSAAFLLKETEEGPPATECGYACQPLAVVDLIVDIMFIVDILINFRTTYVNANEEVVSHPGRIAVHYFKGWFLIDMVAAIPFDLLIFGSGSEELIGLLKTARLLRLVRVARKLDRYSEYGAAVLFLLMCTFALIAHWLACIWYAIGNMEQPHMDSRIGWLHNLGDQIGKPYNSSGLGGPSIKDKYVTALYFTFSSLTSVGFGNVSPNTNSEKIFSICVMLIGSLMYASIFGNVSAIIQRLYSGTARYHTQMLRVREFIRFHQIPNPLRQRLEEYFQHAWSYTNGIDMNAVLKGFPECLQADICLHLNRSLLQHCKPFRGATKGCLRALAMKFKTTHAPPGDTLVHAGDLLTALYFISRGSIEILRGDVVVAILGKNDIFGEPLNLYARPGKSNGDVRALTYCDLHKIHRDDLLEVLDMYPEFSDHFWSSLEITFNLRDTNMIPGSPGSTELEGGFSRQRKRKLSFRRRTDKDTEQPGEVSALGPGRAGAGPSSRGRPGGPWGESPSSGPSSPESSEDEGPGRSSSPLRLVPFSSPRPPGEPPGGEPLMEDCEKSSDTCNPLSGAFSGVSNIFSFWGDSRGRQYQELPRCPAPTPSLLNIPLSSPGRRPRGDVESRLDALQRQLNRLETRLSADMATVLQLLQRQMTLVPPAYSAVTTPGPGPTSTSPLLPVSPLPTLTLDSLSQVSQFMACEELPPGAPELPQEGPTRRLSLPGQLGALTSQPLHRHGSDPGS

Compound	FEIBA EU (from clotting time) ([1]; compound 12.5 μM) [mU/ml]	FEIBA EU (from clotting time) ([1]; compound 25 μM) [mU/ml]	Activity in the Defined Fibrin Deposition Assay [1]	Classification as HERG-channel blocker (potency ranking of Roche et al.) [2]	HERG inhibition Rb+ efflux (% Inhibition at 10 μM) [3] [%]	Max dose within toxicity category: Severe toxicity (one of the animals died within one hour) [4] [mg/kg]	remaining at 0.5 h, 1 μM [5] [%]	level at 5 min ([6]; ip) [ng/mL]	level at 20 min ([6]; ip) [ng/mL]	level at 40 min ([6]; ip) [ng/mL]	level at 1 h ([6]; ip) [ng/mL]	level at 80 min ([6]; ip) [ng/mL]	level at 100 min ([6]; ip) [ng/mL]	level at 5 min ([6]; iv) [ng/mL]	level at 10 min ([6]; iv) [ng/mL]	level at 0.25 h ([6]; iv) [ng/mL]	level at 20 min ([6]; iv) [ng/mL]	level at 25 min ([6]; iv) [ng/mL]	level at 0.5 h ([6]; iv) [ng/mL]	remaining at 0.5 h, 5 μM [7] [%]	further results
CC[C@@H](C)[C@@H](NC(=O)[C@@H](CS)NC(C)=O)C(=O)N[C@H](CCSC)C(=O)N[C@H](Cc1ccccc1)C(=O)N[C@H](Cc1c[nH]c2ccccc12)C(=O)N[C@H](Cc1ccc(O)cc1)C(=O)N[C@H](CC(=O)O)C(=O)N[C@H](CCC(=O)O)C(=O)N[C@H](Cc1ccc(O)cc1)C(=O)N[C@H](CCC(=O)O)C(N)=O [Peptide B03, Ac-cimfwydeye-NH2] (Ac-[dC][dI][dM][dF][dW][dY][dD][dE][dY][dE]-NH2)	291	325	possess activity	high potency	−2.1	15															
Ac-PMKFDVWDLYFEIVW-NH2 [Peptide A02]					−3.3		45	273	315	289	612	99	176	11600	7260	3180	2740	1440	1310	84	
Ac-RMKFDVWDLYFEIVW-NH2 [Peptide A01]		80	possess activity	low-potency			30							673	352	454	145	282	115	58	FEIBA EU (from clotting time) ([1]; compound 50 μM): 127 mU/ml; FEIBA EU (from clotting time) ([1]; compound 100 μM): 145 mU/ml; Survival vs vehicle alone ([8]; 20 mg/kg i.v.): no significant difference; Mean volume of blood loss following tail clip compared to vehicle control ([8]; 20 mg/kg i.v. five minutes before tail clip, any time points): not significantly different; Effect in FIX−/− mice ([8]; conclusion): no effect; recovery at 6 h, 5 μM [9]: > 88.6%; fraction unbound at 6 h, 5 μM ([9]; plasma): < 0.017; recovery at 6 h, 5 μM [10]: > 73.3%; fraction unbound at 6 h, 5 μM ([10]; plasma): < 0.008
Ac-WDLYFEIVW-NH2 [Peptide A05]		193	possess activity	low-potency		15		119	165	185	130	49	50	2600	2040	173	101	23		93	FEIBA EU (from clotting time) ([1]; compound 10 μM): 119 mU/ml; FEIBA EU (from clotting time) ([1]; compound 50 μM): 219 mU/ml; Max dose within toxicity category: Some toxicity (ataxy or catalepsy, no deaths) [4]: 1.5 mg/kg
Ac-WDLYFEIVWE [Peptide A06]	232	168	possess activity		−6.4	25	49	6440	7770	547	5800	4060	3020	50000	32600	21000	15600	11300	7790	98	Max dose within toxicity category: Some toxicity (ataxy or catalepsy, no deaths) [4]: 5 mg/kg
H-ERMEFDVWDLYFEIVW-NH2 [Peptide A09]					−1.6		23	34	67	60	129	74	68	350	184	109	119	64	80	67	Max dose within toxicity category: No detected toxicity ([4]; i.p.): 15 mg/kg
